pIC50: −log10 of the molar value.
Target: Histone-lysine N-methyltransferase EZH2 (Homo sapiens, UniProt Q15910)
Test: Inhibition of EZH2 Y641F mutant in PRC2 complex (unknown origin) using RKQLATKAARK(Me3)SAPATGGVKKP-NH2 peptide substrate preincubated for 30 mins followed by addition of [3H]-SAM measured after 2 hrs by Topcount scintillation proximity assay

| SMILES | pIC50 |
| --- | --- |
| COc1cc(C)[nH]c(=O)c1CNC(=O)c1c(C)n([C@H](C)C2CCNCC2)c2ccccc12 | 8.41 |
| COc1cc(C)[nH]c(=O)c1CNC(=O)c1c(C)n([C@H](C)C2CCN(C)CC2)c2ccccc12 | 8.77 |
| COc1cc(C)[nH]c(=O)c1CNC(=O)c1c(C)n([C@H](C)C2CCN(C(=O)C(C)C)CC2)c2ccccc12 | 7.80 |
| COc1cc(C)[nH]c(=O)c1CNC(=O)c1c(C)n([C@H](C)C2CCN(C(=O)OC(C)C)CC2)c2ccccc12 | 8.39 |
| COc1cc(C)[nH]c(=O)c1CNC(=O)c1c(C)n([C@H](C)C2CCN(C(=O)N(C)C)CC2)c2ccccc12 | 8.05 |
| COc1cc(C)[nH]c(=O)c1CNC(=O)c1c(C)n([C@H](C)C2CCN(C3COC3)CC2)c2ccccc12 | 8.77 |
| CCOC(=O)CN1CCC([C@@H](C)n2c(C)c(C(=O)NCc3c(OC)cc(C)[nH]c3=O)c3ccccc32)CC1 | 8.60 |
| COc1cc(C)[nH]c(=O)c1CNC(=O)c1c(C)n([C@H](C)C2CCN(CCC(F)(F)F)CC2)c2ccccc12 | 8.32 |
| COc1cc(C)[nH]c(=O)c1CNC(=O)c1c(C)n([C@H](C)C2CCN(CC(F)(F)C(F)F)CC2)c2ccccc12 | 8.48 |
| COc1cc(C)[nH]c(=O)c1CNC(=O)c1c(C)n([C@H](C)C2CCN(CC(F)F)CC2)c2ccccc12 | 8.42 |
